Data on 4 substances can be found in patent US20210338558A1, “USE OF COLLAGEN BINDING DOMAINS TO DELIVER PRODUCTS TO SKIN” (Fabius Biotechnology, priority 2018, published 2021).

One experiment concerns native collagen. In words: binding of growth factors carrying the collagen binding decapeptide to collagen. The source says: (§1) Studies with targeted peptides used the decapeptide sequence: Trp-Arg-Glu-Pro-Ser-Phe-Met-Ala-Leu-Ser (WREPSFMALS) (SEQ ID NO: 1). It was linked to either TGF-β or BMP-3 at the C-terminus of the corresponding growth factors.
Polypeptide growth factors, of the TGF-β family, and others, were constructed to contain, at the C-terminal end, a decapeptide with high affinity for collagen (Andrades, Nimni et al. 1996; Tuan, Cheung et al. 1996; Andrades, Han et al. 1999; Hall, Han et al. 2001; Han, Perelman et al. 2002; Romijn, Westein et al. 2003). This was intended to provide concentration of the growth factors where needed for maximum efficacy. In compositions and methods according to the present invention, this effect can be used for delivery of the skin care agent or cosmeceutical to the skin.
This is compared to the behavior of TGF-β without the collagen binding domain, which has poor affinity for collagen.

The nature of experiment [1]: biological activity of the covalently linked growth factors. The conditions noted are these: growth factor linked at its C-terminus to decapeptide WREPSFMALS
Description: as §1

For another experiment, the system named is collagen. Conditions: by binding competition, on a molar basis, relative to intact VWF; cited from earlier work.

Where no end group is shown, it is not given here.

As for “TGF-β with a collagen binding domain: TGF-β linked at the C-terminus to the decapeptide WREPSFMALS; genetically engineered fusion protein (FIG. 3)”, in the experiment on native collagen (FIG. 4, urea), the “dissociation of binding to collagen” value is given as “requires a high concentration of urea for dissociation”. Further, the “binding affinity towards native collagen” value in the experiment with native collagen (growth factor linked at its C-terminus to decapeptide WREPSFMALS) is “strong binding affinity”. The “biological activities retained after linkage” value in experiment [1] was “retained significant biological activities”. Turning to “TGF-β without the collagen binding domain: TGF-β lacking the collagen binding domain, comparator in FIG. 4 [reference compound]”, the affinity for collagen entry with native collagen (FIG. 4) is “poor affinity”. WREPSFCALS [SEQ ID NO: 2]: the “binds more efficiently to collagen than the intact VWF” value in the experiment with collagen is 20 times. Regarding WREPSFMALS [SEQ ID NO: 1], the “binds more efficiently to collagen than the intact VWF” value in the experiment with collagen is 20 times.
